US12427135B2 (priority 2019, dated 2025)

How the values were obtained:
Stx2A1 [1] = biological target: T1, Stx2A1 (Escherichia phage 933W (Bacteriophage 933W), UniProt P09385); format: binding
Stx2A1 [2] = biological target: T1, Stx2A1; assay: biochemical; format: biochemical
RTA [3] = biological target: T2, RTA (Ricinus communis (Castor bean), UniProt P02879); format: binding
RTA [4] = biological target: T2, RTA; assay: biochemical; format: biochemical; conditions: for inhibition at 50 µM: read-out: Percent inhibition at 50 μM
Stx2a holotoxin = Stx2a holotoxin (Escherichia phage 933W (Bacteriophage 933W), UniProt P09385); assay: cell-based; format: cell-based
Chain of Stx2a holotoxin (P09385 23-319 limits assumed): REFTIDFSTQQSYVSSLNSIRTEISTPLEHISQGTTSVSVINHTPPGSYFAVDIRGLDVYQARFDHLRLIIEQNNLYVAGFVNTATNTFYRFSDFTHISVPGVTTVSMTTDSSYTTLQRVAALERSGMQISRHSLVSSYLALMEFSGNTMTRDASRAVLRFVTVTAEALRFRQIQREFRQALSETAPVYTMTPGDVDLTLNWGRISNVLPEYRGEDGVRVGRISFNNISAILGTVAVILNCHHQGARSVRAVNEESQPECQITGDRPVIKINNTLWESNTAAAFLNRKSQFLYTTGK

[5] = read-out: % inhibition Stx2A1 in yeast ribosome
[6] = Vero, read-out: % Inhibition Stx2a depurination in Vero cell

T1 sequence (P09385 23-272 limits assumed): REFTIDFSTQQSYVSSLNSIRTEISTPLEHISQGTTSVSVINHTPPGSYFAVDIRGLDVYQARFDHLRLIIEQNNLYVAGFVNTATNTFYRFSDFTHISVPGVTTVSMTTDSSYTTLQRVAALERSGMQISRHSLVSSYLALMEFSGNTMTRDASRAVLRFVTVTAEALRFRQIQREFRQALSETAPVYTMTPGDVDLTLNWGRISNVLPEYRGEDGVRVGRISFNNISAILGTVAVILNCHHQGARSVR

Question: Which Kd (Stx2A1 [1]) does the source give for `O=C(O)c1ccc(-c2ccc(Cl)cc2)o1` here?
Answer: Its Kd is 0.575 mM.

Question: What about the IC50 (Stx2A1 [2]) of the same molecule?
Answer: Its IC50 is 194 µM.

Question: Which Kd (Stx2A1 [1]) does the source give for `Cc1ccc(-c2ccc(C(=O)O)o2)cc1` here?
Answer: Its Kd is 0.606 mM.

Question: And the inhibition at 100 µM (Stx2A1 [2]; [5])?
Answer: Its inhibition at 100 µM is 64%.

Question: And the inhibition at 200 µM (Stx2A1 [2]; [5])?
Answer: Its inhibition at 200 µM is 70%.

Question: What does the source list for `O=C(O)c1csc(-c2cccc(Cl)c2)n1`?
Answer: Kd (Stx2A1 [1]): 0.579 mM; inhibition at 100 µM (Stx2A1 [2]; [5]): 83%; inhibition at 200 µM (Stx2A1 [2]; [5]): 91%

Question: With `O=C(O)c1csc(-c2cccc(Cl)c2Cl)n1` as the molecule, how does the Kd (Stx2A1 [1]) read?
Answer: Its Kd is 0.487 mM.

Question: What about the inhibition at 100 µM (Stx2A1 [2]; [5]) of the same molecule?
Answer: Its inhibition at 100 µM is 82%.

Question: And the inhibition at 200 µM (Stx2A1 [2]; [5])?
Answer: Its inhibition at 200 µM is 62%.

Question: How did the “binding in the binding level screen” value (RTA [3]) turn out when `O=C(O)c1ccc(-c2ccccc2)s1` [CC10501, 5-phenylthiophene-2-carboxylic acid] was run?
Answer: Its value is “bound RTA better than the positive controls”.

Question: And the “IC50 fold weaker than CC70601” value (RTA [4])?
Answer: Its value is 5.6 fold.

Question: How did the “binding in the binding level screen” value (RTA [3]) turn out when `O=C(O)c1ccc(Cc2cccs2)cc1` [CC70601, 4-(thien-2-ylmethyl) benzoic acid] was run?
Answer: The value was “bound RTA better than the positive controls”.

Question: What does the source list for `O=C(O)c1cc2c(s1)-c1ccccc1CC2` [PD00589, reference compound]?
Answer: inhibitory activity against Stx2A/Stx2A1 depurination in vitro (Stx2A1 [2]): dose-dependent inhibition; protection against depurination by Stx2a holotoxin in Vero cells (Stx2a holotoxin): protected Vero cells against depurination

Question: Which results are given for `Cc1ccccc1-c1ccc(C(=O)O)s1` [RU-NT-070]?
Answer: Kd (RTA [3]): 72 µM; IC50 (RTA [4]): 19 µM

Question: How did the inhibition at 50 µM (RTA [4]) turn out when `Cc1cc(C)c(-c2ccc(C(=O)O)s2)c(C)c1` [RU-NT-075] was run?
Answer: The inhibition at 50 µM was 45%.

Question: What does the source list for `O=C(O)c1ccc(-c2cccc3c2OCC3)s1` [RU-NT-105]?
Answer: Kd (RTA [3]): 1180 ± 193 µM; inhibition at 100 µM (RTA [4]; read-out: Percent inhibition at 100 μM): 54 ± 7%

Question: What does the source list for `Cc1cccc(F)c1-c1ccc(C(=O)O)s1` [RU-NT-110]?
Answer: Kd (RTA [3]): 93 µM; inhibition at 50 µM (RTA [4]): 61%

Question: `COc1cccc(C)c1-c1ccc(C(=O)O)s1` [RU-NT-111] was tested. Which Kd (RTA [3]) did it give?
Answer: Its Kd is 51 µM.

Question: What about the inhibition at 50 µM (RTA [4]) of the same molecule?
Answer: The inhibition at 50 µM was 66%.

Question: With `Cc1cccc(O)c1-c1ccc(C(=O)O)s1` [RU-NT-113] as the molecule, how does the Kd (RTA [3]) read?
Answer: Its Kd is 31 µM.

Question: What about the inhibition at 50 µM (RTA [4]) of the same molecule?
Answer: Its inhibition at 50 µM is 69%.

Question: Which results are given for `O=C(O)c1cc2c(s1)-c1ccccc1CC2` [drawing 373]?
Answer: Kd (Stx2A1 [1]): 0.629 mM; inhibition at 50 µM (Stx2A1 [2]; [5]): 45%; inhibition at 100 µM (Stx2A1 [2]; [5]): 51%; inhibition at 200 µM (Stx2A1 [2]; [5]): 80%; inhibition at 250 µM (Stx2a holotoxin; [6]): 18%; inhibition at 500 µM (Stx2a holotoxin; [6]): 36%
